“And” between values parts separate entries of the source, which are not always exact repeats. Identical values can stand only once. Inconclusive results and toxic doses are left out. Cut-off read from the data, not from the text of the source: active = T/C of 150% or more; inactive = T/C below 125%.
Test system: L1210 leukemia ip in BDF1 mice, survival T/C
Assay: NCI In Vivo Anticancer Drug Screen. Data for tumor model L1210 Leukemia (intraperitoneal) in B6D2F1 (BDF1) mice
Settings: endpoint: mean survival time, higher = longer survival
Procedure, shortened: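 Read-out is survival time, reported as the treated-group measurement over the vehicle-control measurement.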

[1] = dose: 100.0 mg/kg/injection, schedule: Q01DX001 (ip), vehicle: saline
[2] = dose: 200.0 mg/kg/injection, schedule: Q01DX001 (ip), vehicle: saline
[3] = dose: 400.0 mg/kg/injection, schedule: Q01DX001 (ip), vehicle: saline

Measured: T/C

CCCCN=C([Se])NCCCC
inactive: dose: 15.0 mg/kg/injection, schedule: Q01DX015 (ip), vehicle: carboxymethylcellulose (CMC) 103 % of control | dose: 30.0 mg/kg/injection, schedule: Q01DX015 (ip), vehicle: carboxymethylcellulose (CMC) 96 % of control | dose: 60.0 mg/kg/injection, schedule: Q01DX015 (ip), vehicle: carboxymethylcellulose (CMC) 97 % of control

CC1(C)c2ccccc2C(=O)C1Cc1ccccc1 (stereo unspecified)
inactive: dose: 100.0 mg/kg/injection, schedule: Q01DX009 (ip), vehicle: saline 102 % of control | dose: 100.0 mg/kg/injection, schedule: Q04DX003 (ip), vehicle: saline 107 % of control | dose: 200.0 mg/kg/injection, schedule: Q01DX009 (ip), vehicle: saline 101 % of control | dose: 200.0 mg/kg/injection, schedule: Q04DX003 (ip), vehicle: saline 104 % of control | dose: 400.0 mg/kg/injection, schedule: Q01DX009 (ip), vehicle: saline 98 % of control | dose: 400.0 mg/kg/injection, schedule: Q04DX003 (ip), vehicle: saline 96 % of control

Nc1c2ccccc2cc2cccc[n+]12
inactive: dose: 9.38 mg/kg/injection, schedule: Q01DX001 (ip), vehicle: other 101 % of control and 100 % of control | dose: 18.75 mg/kg/injection, schedule: Q01DX001 (ip), vehicle: other 97 % of control and 99 % of control

COc1cc(C)ccc1C1OC(=O)c2c1ccc(OC)c2OC (stereo unspecified)
inactive: [1] 97 % of control | [2] 101 % of control | [3] 92 % of control

CCOC(=O)C1(CC)CNCC(CC)(C(=O)OCC)C1=O (stereo unspecified)
inactive: dose: 50.0 mg/kg/injection, schedule: Q01DX001 (ip), vehicle: saline 103 % of control | [1] 104 % of control | [2] 101 % of control | [3] 97 % of control

CCCCCCCCCCCCC(O)C(=O)O (stereo unspecified)
inactive: dose: 100.0 mg/kg/injection, schedule: Q04DX003 (ip), vehicle: Klucel (hydroxypropylcellulose) (HPC) 95 % of control | dose: 200.0 mg/kg/injection, schedule: Q04DX003 (ip), vehicle: Klucel (hydroxypropylcellulose) (HPC) 95 % of control | dose: 400.0 mg/kg/injection, schedule: Q04DX003 (ip), vehicle: Klucel (hydroxypropylcellulose) (HPC) 94 % of control
